Patent US20220054411A1, “MULTIPLE CONCENTRATE FORMULATION FOR MEDICAL PRODUCTS” (priority 2020, published 2022)
In brackets after ≈: the same amount, converted by molar mass.

Assays:
Assay type in all cases: cell-based
Staphylococcus Aureus = experiment: Minimal Inhibitory Concentration against Staphylococcus Aureus
Escherichia coli = experiment: Minimal Inhibitory Concentration against Escherichia coli
[1] = system: Staphylococcus epidermidis; experiment: Minimal Inhibitory Concentration against Staphylococcus epidermidis; conditions: at 24 hours
Pseudomonas Aeruginosa = experiment: Minimal Inhibitory Concentration against Pseudomonas Aeruginosa

| MIC (Staphylococcus Aureus; pH 5, at 24 hours) | MIC (Staphylococcus Aureus; pH 6, at 24 hours) | MIC (Staphylococcus Aureus; pH 7, at 24 hours) | MIC (Escherichia coli; pH 5, at 24 hours) | MIC (Escherichia coli; pH 6, at 24 hours) | MIC (Escherichia coli; pH 7, at 24 hours) | SMILES | Minimal Inhibitory Concentration (Staphylococcus Aureus; pH 5, at 24 hours) | Minimal Inhibitory Concentration (Staphylococcus Aureus; pH 6, at 24 hours) | Minimal Inhibitory Concentration (Staphylococcus Aureus; pH 7, at 24 hours) | Minimal Inhibitory Concentration (Escherichia coli; pH 5, at 24 hours) | Minimal Inhibitory Concentration (Escherichia coli; pH 6, at 24 hours) | Minimal Inhibitory Concentration (Escherichia coli; pH 7, at 24 hours) | Minimal Inhibitory Concentration [1] | Minimal Inhibitory Concentration (Pseudomonas Aeruginosa) |
| --- | --- | --- | --- | --- | --- | --- | --- | --- | --- | --- | --- | --- | --- | --- |
| 156 µg/mL (≈ 1390 µM) | 312 µg/mL (≈ 2790 µM) | 1250 µg/mL (≈ 11100 µM) | 312 µg/mL (≈ 2790 µM) | 1250 µg/mL (≈ 11100 µM) | > 5000 µg/mL | C/C=C/C=C/C(=O)O [Sorbic Acid, sorbic acid] |  |  |  |  |  |  |  |  |
|  |  |  |  |  |  | CCCCCCCCCCCC(=O)OCC(O)CO (centres unmarked) [Monolaurin, monolaurin] | 16 micrograms per milliliter | 64 micrograms per milliliter | 128 micrograms per milliliter | 500 micrograms per milliliter | 2,000 micrograms per milliliter | >4,000 micrograms per milliliter | 1953 micrograms per milliliter | 62.5 micrograms per milliliter |
